Reference: patent publication US20050208496A1, “Methods of testing for bronchial asthma or chronic obstructive pulmonary disease” (Genox Research, Inc., priority 2002, published 2005)
Where two headings read alike, the source gives them in different places.

System: respiratory epithelial cells
[1] = IL-13 vs no stimulation, lot 2 Day 3 AI
[2] = IL-13 vs no stimulation, lot 2 Day 7 AI

“IL-13: human IL-13 (Peprotech, Inc.) added to the medium at 50 ng/mL to stimulate respiratory epithelial cells” was tested, and the “IGFBP6 (1736_at) expression change” value [1] was −4.7, the “LOH11CR2A (38151_at) expression change” value [1] was −3.2 and the “MMP9 (31859_at) expression change” value [1] was −18. For the same substance, the “MMP10 (1006_at) expression change” value [1] was −30.3, the “MSMB (32149_at) expression change” value [1] was −21.3 and the “NDRG1 (36933_at) expression change” value [1] was −2.9. For the same substance, the “NOTCH3 (38750_at) expression change” value [1] was −4.5, the “PFTK1 (36502_at) expression change” value [1] was −2.3 and the “PSCA (33792_at) expression change” value [1] was −4.9. For the same substance, the “PTK2B (33804_at) expression change” value [1] was −3.7, the “PTPRZ1 (1364_at) expression change” value [1] was −4.3 and the “RARRES1 (1042_at) expression change” value [1] was −3.1. For the same substance, the “RARRES1 (33505_at) expression change” value [1] was −3.5, the “RDC1 (34288_at) expression change” value [1] was −3.7 and the “RTP801 (39827_at) expression change” value [1] was −2.3. The “S100A8 (41096_at) expression change” value [1] was −3, the “SEC14L2 (32817_at) expression change” value [1] was −6.9 and the “SERPINA3 (33825_at) expression change” value [1] was −7. The “SERPINE1 (672_at) expression change” value [1] was −62.1, the “SERPINE1 (38125_at) expression change” value [1] was −11.2 and the “STK39 (39120_at) expression change” value [1] was −2.6. The “TSPAN-5 (40990_at) expression change” value [1] was −3.2, the “VRP (38223_at) expression change” value [1] was −2 and the “c-fos (1915_s_at) expression change” value [1] was −2. The “c-fos (1916_s_at) expression change” value [1] was −3.1, the “AGR2 (38827_at) expression change” value [2] was −3.7 and the “AKR1B10 (37482_at) expression change” value [2] was −9.7. For the same substance, the “AKR1C3 (37399_at) expression change” value [2] was −2.8, the “ANXA10 (32349_at) expression change” value [2] was −18.9 and the “APM2 (32527_at) expression change” value [2] was −3.3. For the same substance, the “BCAS1 (37821_at) expression change” value [2] was −13.2, the “BDKRB2 (39310_at) expression change” value [2] was −4.2 and the “BENE (33331_at) expression change” value [2] was −8.5. The “C4.4A (41641_at) expression change” value [2] was −6.8, the “CRA (1230_g_at) expression change” value [2] was −3 and the “CTSL2 (40717_at) expression change” value [2] was −5.6. The “DEFB2 (32464_at) expression change” value [2] was −2.6, the “ECM1 (37600_at) expression change” value [2] was −11 and the “EPHA1 (1108_s_at) expression change” value [2] was −3.6. For the same substance, the “ETFB (36881_at) expression change” value [2] was −3.4, the “FABP5 (39799_at) expression change” value [2] was −3 and the “GABRE (34280_at) expression change” value [2] was −3.2. For the same substance, the “HLA-DPB1 (38095_i_at) expression change” value [2] was −2.5, the “HLA-DPB1 (38096_f_at) expression change” value [2] was −3.3 and the “IGFBP6 (1736_at) expression change” value [2] was −7.2. For the same substance, the “IMPA2 (36496_at) expression change” value [2] was −2.7, the “MMP9 (31859_at) expression change” value [2] was −113.5 and the “MMP10 (1006_at) expression change” value [2] was −35.2. The “MN1 (37283_at) expression change” value [2] was −7.3, the “MSMB (32149_at) expression change” value [2] was −8.1 and the “NCALD (38803_at) expression change” value [2] was −4.2. For the same substance, the “NOTCH3 (38750_at) expression change” value [2] was −3.5, the “PFTK1 (36502_at) expression change” value [2] was −3.5 and the “PSCA (33792_at) expression change” value [2] was −9.2. The “PTK2B (33804_at) expression change” value [2] was −3.5, the “PTPRZ1 (1364_at) expression change” value [2] was −14.9 and the “RARRES1 (1042_at) expression change” value [2] was −2.4. For the same substance, the “RARRES1 (33505_at) expression change” value [2] was −3.4, the “RDC1 (34288_at) expression change” value [2] was −3 and the “RTP801 (39827_at) expression change” value [2] was −2.4. For the same substance, the “S100A8 (41096_at) expression change” value [2] was −6.1, the “SERPINA3 (33825_at) expression change” value [2] was −9.3 and the “SERPINB1 (33305_at) expression change” value [2] was −2.9. For the same substance, the “SERPINB5 (862_at) expression change” value [2] was −2.2, the “SERPINE1 (672_at) expression change” value [2] was −34.4 and the “SERPINE1 (38125_at) expression change” value [2] was −11. The “STK39 (39120_at) expression change” value [2] was −2.3, the “TSPAN-5 (40990_at) expression change” value [2] was −6 and the “VRP (38223_at) expression change” value [2] was −2.4. The “c-fos (1915_s_at) expression change” value [2] was −2.3, the “c-fos (1916_s_at) expression change” value [2] was −3.6 and the “pendrin gene expression level, factor of increase in response to IL-13 stimulation” value (IMM method, day 3 and day 7, both Lots 1 and 2) was ≥ 20. The “pendrin gene (36376_at, AF030880) expression fold change upon IL-13 stimulation, HG-U95A chip” value (Lot 2, Day 3, AI) was 118.3, the “pendrin gene (36376_at, AF030880) expression fold change upon IL-13 stimulation, HG-U95A chip” value (Lot 2, Day 7, AI) was 58.2 and the “AA149682 (51925_at) expression fold change” value (lot 1, Day 3, AI method) was 2.9 fold. For the same substance, the “AA420479 (52539_at) expression fold change” value (lot 1, Day 3, AI method) was 3.8 fold, the “AA541787 (52622_at) expression fold change” value (lot 1, Day 3, AI method) was 3.3 fold and the “AA582926 (52307_at) expression fold change” value (lot 1, Day 3, AI method) was 2.4 fold. The “ACP5 (677_s_at) expression, fold change upon IL-13 stimulation” value (lot 1, Day 3, AI method) was −2.8 fold, the “ADAM8 (40712_at) expression, fold change upon IL-13 stimulation” value (lot 1, Day 3, AI method) was 5.8 fold and the “ADAM28 (35479_at) expression, fold change upon IL-13 stimulation” value (lot 1, Day 3, AI method) was 9 fold. For the same substance, the “AI310524 (47087_at) expression fold change” value (lot 1, Day 3, AI method) was 3.6 fold, the “AI565105 (54886_at) expression fold change” value (lot 1, Day 3, AI method) was 2.8 fold and the “AI659927 (54033_at) expression fold change” value (lot 1, Day 3, AI method) was 4.2 fold. For the same substance, the “AI718385 (53061_at) expression fold change” value (lot 1, Day 3, AI method) was 4.6 fold, the “AI809925 (53010_at) expression fold change” value (lot 1, Day 3, AI method) was 3.1 fold and the “AI989346 (52327_s_at) expression fold change” value (lot 1, Day 3, AI method) was 2.9 fold. For the same substance, the “AKAP2 (35985_at) expression, fold change upon IL-13 stimulation” value (lot 1, Day 3, AI method) was 6 fold, the “AKAP2 (48035_at) expression fold change” value (lot 1, Day 3, AI method) was 6.6 fold and the “ALOX15 (34636_at) expression, fold change upon IL-13 stimulation” value (lot 1, Day 3, AI method) was 47.8 fold. For the same substance, the “BAL (52167_at) expression fold change” value (lot 1, Day 3, AI method) was 3.5 fold, the “BRCA1 (626_s_at) expression fold change” value (lot 1, Day 3, AI method) was 9.1 fold and the “BST2 (39061_at) expression, fold change upon IL-13 stimulation” value (lot 1, Day 3, AI method) was 9.9 fold. For the same substance, the “C1S (40496_at) expression, fold change upon IL-13 stimulation” value (lot 1, Day 3, AI method) was 3.3 fold, the “C21orf11 (58957_at) expression fold change” value (lot 1, Day 3, AI method) was 6.6 fold and the “CCND3 (1794_at) expression fold change upon IL-13 stimulation” value (lot 1, Day 3, AI method) was 2.2 fold. The “CCND3 (1795_g_at) expression fold change upon IL-13 stimulation” value (lot 1, Day 3, AI method) was 2.2 fold, the “CD47 (37890_at) expression fold change” value (lot 1, Day 3, AI method) was 2.1 fold and the “CDH6 (1620_at) expression fold change upon IL-13 stimulation” value (lot 1, Day 3, AI method) was 4.3 fold. For the same substance, the “CDH6 (57421_at) expression fold change” value (lot 1, Day 3, AI method) was 3.5 fold, the “CDH26 (46916_at) expression fold change” value (lot 1, Day 3, AI method) was 8.9 fold and the “CH25H (32363_at) expression, fold change upon IL-13 stimulation” value (lot 1, Day 3, AI method) was 9.9 fold. For the same substance, the “CLDN1 (46260_at) expression fold change” value (lot 1, Day 3, AI method) was 2.4 fold, the “CLDN4 (35276_at) expression, fold change upon IL-13 stimulation” value (lot 1, Day 3, AI method) was 2.3 fold and the “CTSC (133_at) expression, fold change upon IL-13 stimulation” value (lot 1, Day 3, AI method) was 3.5 fold. For the same substance, the “CXCL16 (44095_at) expression fold change” value (lot 1, Day 3, AI method) was 2.5 fold.
